Like-named read-outs stand apart in the source and are kept apart here.

In one assay the target is T1, adenosine A-2 receptors (Rattus norvegicus, UniProt P30543).
T1 construct: tissue Charles River (animals); host or cells: brain striatum membranes, young male rats (C-D strain)
As to the kind of experiment: Test for affinity for brain adenosine A-2 receptors ([3H]NECA displacement, striatal membranes). Format: binding. The settings on record: read-out: A2 Ki. The method, then: Membranes for ligand binding are isolated from rat brain striatum. The tissue is homogenized in 20 vol icecold 50 mM Tris-HCl buffer (pH 7.7) using a polytron (setting for 6 to 20 seconds). The homogenate is centrifuged at 50,000 x g for 10 minutes at 4° C. The pellet is again homogenized in a polytron in 20 vol of buffer, and centrifuged as before. The pellet is finally resuspended in 40 vol of 50mM Tris-HCl (pH 7.7) per gram of original wet weight of tissue.
Incubations are carried out at 25° C. for 60 minutes. Each tube is filtered through GF/B glass fiber filters using a vacuum. The filters are rinsed two times with 5 ml of the ice-cold buffer. […] The filters are counted by liquid scintillation spectrometry.
Specific binding of [3H]NECA is measured as the excess over blanks run in the presence of 100 μM 2-chloroadenosine. Total membrane-bound radioactivity is about 2.5% of that added to the test tubes. […] Specific binding to membranes is about 50% of the total bound.

Assay [1] deals with T2, Adenosine A-1 receptor (Rattus norvegicus, UniProt P25099).
T2 sequence (P25099 1-326): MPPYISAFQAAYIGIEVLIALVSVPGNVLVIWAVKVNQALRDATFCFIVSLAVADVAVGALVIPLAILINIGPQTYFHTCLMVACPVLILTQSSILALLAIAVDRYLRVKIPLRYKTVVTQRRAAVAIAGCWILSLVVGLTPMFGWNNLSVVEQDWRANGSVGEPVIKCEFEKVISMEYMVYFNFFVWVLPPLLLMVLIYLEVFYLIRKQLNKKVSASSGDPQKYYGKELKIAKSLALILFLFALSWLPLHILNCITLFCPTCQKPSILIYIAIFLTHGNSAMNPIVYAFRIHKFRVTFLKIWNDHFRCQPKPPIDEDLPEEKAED
Nature of the assay: biochemical.

Assay [2] addresses T2, Adenosine A-1 receptor. Nature of the assay: Test for affinity for brain adenosine A-1 receptor binding sites ([3H]cyclohexyladenosine displacement, whole brain membranes). The settings on record: ratio of A2 Ki to A1 Ki.
The target in assay [3] is T2, Adenosine A-1 receptor.
For the next assay, the target named is A-1 receptors. The settings on record: read-out: Ki at the A-1 receptors in brain membranes; cited from earlier work.

T1 sequence (P30543 whole entry): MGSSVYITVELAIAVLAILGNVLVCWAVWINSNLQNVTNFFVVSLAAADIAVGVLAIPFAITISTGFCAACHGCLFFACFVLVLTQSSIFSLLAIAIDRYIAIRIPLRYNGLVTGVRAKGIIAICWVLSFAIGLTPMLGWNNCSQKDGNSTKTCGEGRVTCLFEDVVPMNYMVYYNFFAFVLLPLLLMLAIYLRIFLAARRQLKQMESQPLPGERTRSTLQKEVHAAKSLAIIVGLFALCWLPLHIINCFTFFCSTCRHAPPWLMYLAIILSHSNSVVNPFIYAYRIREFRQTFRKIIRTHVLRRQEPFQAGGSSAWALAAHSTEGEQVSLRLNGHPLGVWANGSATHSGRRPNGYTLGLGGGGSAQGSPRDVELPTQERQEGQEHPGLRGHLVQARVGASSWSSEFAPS

By Ki is commonly meant a measure of affinity in units of concentration, obtained from inhibition or displacement. Turning to `CCCn1c(=O)c2[nH]c(C(CC)c3ccccc3)nc2n(CCC)c1=O` (racemic) [3,7-dihydro-8-[(±)-phenylpropyl]-1,3-dipropyl-1H-purine-2,6-dione], the Ki was determined as 1.1 µM on adenosine A-2 receptors and 0.0051 µM on Adenosine A-1 receptor [1]. Moreover, the A2/A1 on Adenosine A-1 receptor [2] worked out at 216.
Regarding `CCCn1c(=O)c2[nH]c(C3Cc4ccccc4C3)nc2n(CCC)c1=O` [3,7-dihydro-8-(2-indanyl)-1,3-dipropyl-1H-purine-2,6-dione], on adenosine A-2 receptors, the Ki worked out at 7.1 µM.
Take `CCCn1c(=O)c2nc([C@@H](C)Cc3ccccc3)[nH]c2n(CCC)c1=O` [3,7-dihydro-8-[(1S)-1-methyl-2-phenylethyl]-1,3-dipropyl-1H-purine-2,6-dione]: at adenosine A-2 receptors, the inhibition constant (Ki) worked out at 0.848 µM.
The same measure, in the same setting: the value for `CCCC(Cc1ccccc1)c1nc2c(=O)n(CCC)c(=O)n(CCC)c2[nH]1` (racemic) [3,7-Dihydro-8-[1-(phenylmethyl)butyl]-1,3-dipropyl-1H-purine-2,6-dione] was 0.608 µM.
As for `CCCn1c(=O)c2[nH]c(C(C)Cc3ccccc3)nc2n(CCC)c1=O` (racemic) [3,7-Dihydro-8-[(±)-1-methyl-2-phenylethyl]-1,3-dipropyl-1H-purine-2,6-dione], the inhibition constant (Ki) at adenosine A-2 receptors stood at 0.644 µM.
For `CCCn1c(=O)c2[nH]c([C@@H](CC)c3ccccc3)nc2n(CCC)c1=O` [3,7-Dihydro-8-[(S)-phenylpropyl]-1,3-dipropyl-1H-purine-2,6-dione], the inhibition constant Ki worked out at 1.56 µM at adenosine A-2 receptors and 0.052 µM on Adenosine A-1 receptor [1]. Also, the A2/A1 at Adenosine A-1 receptor [2] is recorded as 30.
For the compound `CCCn1c(=O)c2nc(C(CC)Cc3ccccc3)[nH]c2n(CCC)c1=O` (stereo not drawn) [3,7-dihydro-8-[1-(phenylmethyl)propyl]-1,3-dipropyl-1H-purine-2,6-dione], the inhibitory constant (Ki) at adenosine A-2 receptors turned out to be 71.7 µM.
Turning to “3,7-Dihydro-8-(1-phenylethyl-2-phenylethyl)-1,3-dipropyl-1H-purine-2,6-dione”, the Ki on adenosine A-2 receptors came to 2.6 µM; on Adenosine A-1 receptor [3], 0.071 µM. Also, the A2/A1 at Adenosine A-1 receptor [2] turned out to be 37.
For `CCCn1c(=O)c2[nH]c([C@H](CC)c3ccccc3)nc2n(CCC)c1=O` [3,7-dihydro-8-[(R)-phenylpropyl]-1,3-dipropyl-1H-purine-2,6-dione], the inhibition constant (Ki) came to 0.647 µM on adenosine A-2 receptors and 0.0016 µM at Adenosine A-1 receptor [1]. In addition, on Adenosine A-1 receptor [2], the A2/A1 came out at 404.
The like results for `C=CCn1c(=O)c2[nH]c(C(C)c3ccccc3)nc2n(CC=C)c1=O` (stereo not drawn) [3,7-dihydro-8-(1-phenylethyl)-1,3-di-2-propenyl-1H-purine-2,6-dione] were, in that order, 2.4 µM, 0.02 µM and 119.
Turning to `CCCn1c(=O)c2[nH]c([C@H](C)Cc3ccccc3)nc2n(CCC)c1=O` [3,7-dihydro-8-[(1R)-1-methyl-2-phenylethyl]-1,3-dipropyl-1H-purine-2,6-dione], the inhibition constant (Ki) at adenosine A-2 receptors is 0.157 µM.
Regarding `CCCn1c(=O)c2nc(C(C)c3ccccc3)[nH]c2n(CCC)c1=O` (stereo not drawn) [3,7-dihydro-8-(1-phenylethyl)-1,3-dipropyl-1H-purine-2,6-dione], the inhibition constant (Ki) at adenosine A-2 receptors amounted to 1.6 µM.
As for `CCCn1c(=O)c2nc(C(CO)Cc3ccccc3)[nH]c2n(CCC)c1=O` (stereo not drawn) [3,7-dihydro-8-[1-(hydroxymethyl)-2-phenylethyl]-1,3-dipropyl-1H-purine-2,6-dione], the Ki at adenosine A-2 receptors is 3.9 µM.
Consider `CCCn1c(=O)c2[nH]c(-c3ccc(OCC(=O)NCCN)cc3)nc2n(CCC)c1=O` [XAC], for which the Ki on A-1 receptors is 0.0012 ± 0.0005 µM.

These data come from patent publication US5047534A (Merrell Dow Pharmaceuticals Inc., priority 1990, dated 1991).
